Earlier results in publication PMC11212004 (Pharmacology Research & Perspectives, 2024).

Tests used:
[1] = tested on: Orai calcium channel
[2] = tested on: osteoclasts
[3] = collagen‐induced arthritis (CIA) model
[4] = tested on: Jurkat cells

Q: With `CCC(=O)Nc1ccc(Cl)c(Cl)c1` [DCPA, 3,4‐dichloropropionanilide] as the molecule, how does the “Orai calcium channel antagonism” value [1] read?
A: functions as an Orai calcium channel antagonist

Q: What about the “mineral resorption by osteoclasts in vitro” value [2] of the same molecule?
A: inhibits mineral resorption

Q: What about the “bone erosion and cartilage damage” value [3] of the same molecule?
A: reduces bone erosion and cartilage damage

Q: What about the “IL‐2 secretion” value [4] of the same molecule?
A: decreased NFAT‐dependent IL‐2 secretion
